Measurements as given in article PMC11450741, “Functional Characterization of an Arylsulfonamide-Based Small-Molecule Inhibitor of the NLRP3 Inflammasome” (ACS Chemical Neuroscience, 2024).

Molecular target: T1, NLRP3 (Mus musculus, UniProt Q8R4B8)
T1 construct: full length recombinant NLRP3 protein (N-Flag, expressed in Expi293F cells)
Test: intrinsic fluorescence spectroscopy titration (ex […]/em […] nm); supported by Western blot thermal shift ([…] to […] °C)
Assay type: binding

T1 sequence (Q8R4B8 whole entry): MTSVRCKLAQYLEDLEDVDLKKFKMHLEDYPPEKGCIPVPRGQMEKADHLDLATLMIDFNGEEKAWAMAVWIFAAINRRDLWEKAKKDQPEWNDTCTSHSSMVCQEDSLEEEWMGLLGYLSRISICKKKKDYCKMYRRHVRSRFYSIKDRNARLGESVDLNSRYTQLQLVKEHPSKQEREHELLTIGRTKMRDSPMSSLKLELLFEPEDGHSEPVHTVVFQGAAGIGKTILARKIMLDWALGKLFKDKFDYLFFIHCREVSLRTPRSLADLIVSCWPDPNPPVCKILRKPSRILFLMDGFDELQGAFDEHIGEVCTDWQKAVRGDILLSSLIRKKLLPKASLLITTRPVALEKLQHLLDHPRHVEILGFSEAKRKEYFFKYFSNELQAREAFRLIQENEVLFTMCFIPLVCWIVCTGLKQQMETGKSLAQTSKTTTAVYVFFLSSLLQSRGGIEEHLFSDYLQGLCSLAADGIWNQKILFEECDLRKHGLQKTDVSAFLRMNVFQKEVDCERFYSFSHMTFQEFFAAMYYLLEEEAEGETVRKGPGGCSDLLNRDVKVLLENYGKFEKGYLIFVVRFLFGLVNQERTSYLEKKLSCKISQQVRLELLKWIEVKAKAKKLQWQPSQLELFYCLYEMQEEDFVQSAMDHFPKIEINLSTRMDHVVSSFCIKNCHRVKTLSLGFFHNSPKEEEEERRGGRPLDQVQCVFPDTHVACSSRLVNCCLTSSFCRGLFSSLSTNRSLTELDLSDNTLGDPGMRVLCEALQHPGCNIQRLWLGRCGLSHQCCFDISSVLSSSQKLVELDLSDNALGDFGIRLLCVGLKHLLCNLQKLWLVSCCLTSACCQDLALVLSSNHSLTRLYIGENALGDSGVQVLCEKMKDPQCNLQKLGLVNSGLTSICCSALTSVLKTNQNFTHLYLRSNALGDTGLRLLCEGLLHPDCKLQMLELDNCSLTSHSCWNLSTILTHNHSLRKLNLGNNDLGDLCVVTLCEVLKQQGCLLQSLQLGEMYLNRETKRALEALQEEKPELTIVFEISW

With `CCCOc1ccc(Cl)cc1CN(CCc1ccc(S(=O)(=O)N2CCOCC2)cc1)C(=O)Cc1ccsc1` [YM-I-26] as the compound, how does the Kd read?
Its Kd is 560 ± 30.3 nM.
